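Values below derive from 48-hour exposures of cells grown in 96-well plates, with endpoints linearly interpolated between the two concentrations bracketing the appropriate inhibition level. TGI: concentration producing complete growth inhibition.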
What was measured:
Assay in all cases: NCI tumour cell line growth inhibition, 48 h
UACC-257 melanoma = tested on: UACC-257 melanoma
OVCAR-4 ovarian = tested on: OVCAR-4 ovarian
HOP-62 NSCLC = tested on: HOP-62 NSCLC
HCC-2998 colon = tested on: HCC-2998 colon
SR leukemia = tested on: SR leukemia
NCI-H23 lung = tested on: NCI-H23 lung
CCRF-CEM leukemia = tested on: CCRF-CEM leukemia
786-0 renal = tested on: 786-0 renal
SN12C renal = tested on: SN12C renal
SK-MEL-5 melanoma = tested on: SK-MEL-5 melanoma
SK-MEL-28 melanoma = tested on: SK-MEL-28 melanoma
NCI-H226 lung = tested on: NCI-H226 lung
U251 CNS = tested on: U251 CNS
A498 renal = tested on: A498 renal
SK-OV-3 ovarian = tested on: SK-OV-3 ovarian
DU-145 prostate = tested on: DU-145 prostate
MDA-MB-435 = tested on: MDA-MB-435
MDA-MB-231 breast = tested on: MDA-MB-231 breast
MCF7 breast = tested on: MCF7 breast
BT-549 breast = tested on: BT-549 breast

SMILES | TGI (UACC-257 melanoma) [µM] | TGI (OVCAR-4 ovarian) [µM] | TGI (HOP-62 NSCLC) [µM] | TGI (HCC-2998 colon) [µM] | TGI (SR leukemia) [µM] | TGI (NCI-H23 lung) [µM] | TGI (CCRF-CEM leukemia) [µM] | TGI (786-0 renal) [µM] | TGI (SN12C renal) [µM] | TGI (SK-MEL-5 melanoma) [µM] | TGI (SK-MEL-28 melanoma) [µM] | TGI (NCI-H226 lung) [µM] | TGI (U251 CNS) [µM] | TGI (A498 renal) [µM] | TGI (SK-OV-3 ovarian) [µM] | TGI (DU-145 prostate) [µM] | TGI (MDA-MB-435) [µM] | TGI (MDA-MB-231 breast) [µM] | TGI (MCF7 breast) [µM] | TGI (BT-549 breast) [µM]
c1cnc2c(c1)-n1cccc1C1(CCSC1)NN2 (configuration not stated) | > 100 | > 100 | > 100 | > 100 | > 100 | > 100 | > 100 | > 100 | > 100 | > 100 | > 100 | > 100 | > 100 | – | – | – | – | – | – | –
CSc1ccc(OCC2OC2O)cc1 (configuration not stated) | > 100 | > 100 | > 100 | > 100 | > 100 | > 100 | > 100 | > 100 | > 100 | 35.6 | – | > 100 | > 100 | > 100 | > 100 | – | – | – | – | –
O=[N+]1ON=C(c2ccccc2)C1=C1C(c2c(-c3ccccc3)no[n+]2[O-])=NON1[O-] | 67.3 | 9.79 | 55.1 | > 100 | > 100 | 20.7 | > 100 | 31.2 | > 100 | > 100 | > 100 | 62.5 | – | 43.7 | > 100 | > 100 | 6.56 | 95.9 | 7.51 | –
COC(=O)C1=CC2CC1C(S(=O)(=O)c1ccccc1)C2S(=O)(=O)c1ccccc1 (configuration not stated) | 32.7 | 39.9 | > 100 | 34.4 | 11.3 | 36.8 | 8.44 | 22.2 | 28.8 | 33.2 | 30.4 | 40.2 | 35.8 | 42.9 | > 100 | – | – | – | – | –
N#Cc1cc([N+](=O)[O-])ccc1NC(=O)C(F)(F)F | > 100 | > 100 | > 100 | > 100 | > 100 | > 100 | > 100 | > 89.5 | > 100 | > 100 | > 100 | > 100 | > 100 | > 100 | > 100 | – | – | – | – | –
CN(C)c1ccc(-c2c(C#N)c(O)n(NS(=O)(=O)c3ccccc3)c(=O)c2C#N)cc1 | > 100 | > 100 | > 100 | > 100 | – | – | > 100 | > 100 | > 100 | > 100 | > 100 | > 100 | > 100 | > 100 | 37 | – | > 100 | > 100 | > 100 | > 100
NC1=NN(c2ccccc2)C(=O)C1/C(=N\NC(=O)c1cc2ccccc2cc1O)C(=O)Nc1cccc(C(F)(F)F)c1 (configuration not stated) | 71.1 | > 100 | > 100 | > 100 | – | > 100 | 34.1 | > 100 | > 100 | 51.8 | > 100 | – | > 100 | – | – | – | – | – | – | –
CCC12CCCNC1c1c(n(C)c3ccccc13)C(C(=O)OC)C2 (configuration not stated) | 255 | – | > 275 | > 275 | > 275 | 252 | > 275 | > 275 | > 275 | 82.5 | > 275 | > 275 | > 275 | – | 186 | – | – | – | – | –
Cc1ccc(Nc2[nH]c(=O)[nH]c(=O)c2C)cc1Cl | > 100 | > 100 | > 100 | > 100 | – | > 100 | – | > 100 | > 100 | > 100 | > 100 | > 100 | > 100 | > 100 | > 100 | – | > 100 | > 100 | 59.7 | > 100
Cc1cc(C)n2c(-c3ccccc3)c(C)cc2n1 | > 100 | > 100 | > 100 | > 100 | – | > 100 | 43.6 | > 100 | > 100 | > 100 | > 100 | > 100 | > 100 | > 100 | > 100 | – | – | – | – | –
CC1(c2cccc(N)c2)C2C(=O)NC(=O)C1C(=O)NC2=O (configuration not stated) | > 100 | > 100 | > 100 | > 100 | – | 48.5 | 62.5 | > 100 | 97.7 | 37 | > 100 | 83.8 | – | 99.6 | 91.5 | – | – | – | – | –
CC1=NN2C(c3ccc(C)cc3)=CSC2=NC(C)(C)C1 | > 100 | > 100 | > 100 | > 100 | – | > 100 | > 100 | > 100 | > 100 | > 100 | > 100 | > 100 | > 100 | > 100 | > 100 | – | – | – | – | –
COc1ccc(N2C(=O)c3c(c4[nH]c5ccc(OC)cc5c4c4ccc(C(C)(C)C)cc34)C2=O)cc1 | > 100 | > 100 | > 100 | > 100 | – | > 100 | > 100 | > 100 | > 100 | > 100 | > 100 | > 100 | > 100 | – | > 100 | – | – | – | – | –
O=C(OC[C@H]1C[C@H]2C(=O)CCC[C@H]2O1)c1ccccc1 | > 100 | > 100 | > 100 | – | > 100 | > 100 | > 100 | > 100 | > 100 | > 100 | > 100 | > 100 | > 100 | > 100 | > 100 | > 100 | > 100 | > 100 | > 100 | –
CC1CCCCN1CC(=O)c1ccc2c(c1)Sc1ccccc1O2 (configuration not stated) | 39 | 28.6 | 30.7 | 41.3 | 47.8 | 30.3 | 44.4 | 31.9 | 37.9 | – | 33.1 | 26.4 | 31.9 | 38.6 | 31.6 | 67.8 | 29.8 | 54.6 | 33.6 | –
Cc1ccc2c(c1)C1C(CO2)C(c2ccccc2)=NN1c1ccccc1 (configuration not stated) | > 100 | – | > 100 | > 100 | – | > 100 | > 100 | > 100 | – | – | > 100 | – | > 100 | > 100 | > 100 | – | – | – | – | –
C[C@H](NC(=O)n1c2ccccc2c2ccccc21)C(=O)O | > 100 | – | > 100 | > 100 | > 100 | > 100 | > 100 | > 100 | > 100 | > 100 | > 100 | > 100 | > 100 | – | > 100 | – | – | – | – | –
CCOC(=O)C1C(c2ccc(O)c(OC)c2)c2c([nH][nH]c2=O)CC1(C)O (configuration not stated) | > 100 | > 100 | > 100 | > 100 | > 100 | > 100 | > 100 | > 100 | > 100 | > 100 | > 100 | – | > 100 | > 100 | – | > 100 | > 100 | > 100 | > 100 | –
NC(=O)C(=CNC(=S)Nc1ccc(Cl)c(Cl)c1)C(N)=O | > 100 | > 100 | > 100 | > 100 | > 100 | > 100 | > 100 | > 100 | > 100 | > 100 | > 100 | > 100 | > 100 | > 100 | > 100 | > 100 | > 100 | > 100 | > 100 | –
C/C(=N\NS(=O)(=O)c1ccc(C)cc1)c1cc2ccccc2n1C | > 100 | > 100 | > 100 | > 100 | > 100 | > 100 | > 100 | > 100 | 57.7 | > 100 | – | – | > 100 | > 100 | – | – | – | – | – | –
O=c1c(C2=NCCC2)c(-c2ccc[nH]2)[nH]n1-c1ccccc1 | > 100 | > 100 | – | – | – | > 100 | > 100 | > 100 | > 100 | > 100 | > 100 | > 100 | > 100 | > 100 | > 100 | > 100 | > 100 | > 100 | – | > 100
CC(=O)OC12c3ccccc3-c3ccccc3C1C(C(=O)O)C2(Cl)C(=O)O (configuration not stated) | > 10 | > 10 | > 10 | > 10 | > 10 | > 10 | > 10 | > 10 | > 10 | > 10 | > 10 | > 10 | > 10 | > 10 | > 10 | > 10 | > 10 | > 10 | > 10 | –
COC(CC1(/C=C/O[Si](C(C)C)(C(C)C)C(C)C)C(=O)N(COCC[Si](C)(C)C)c2ccccc21)OC (configuration not stated) | > 100 | > 100 | > 100 | > 100 | > 100 | > 100 | > 100 | > 100 | > 100 | > 100 | 60 | > 100 | > 100 | > 100 | 51.2 | > 100 | 60.9 | > 100 | – | –
COC(=O)N/N=C(\C(=O)Nc1cccc([N+](=O)[O-])c1)c1nc2ccc([N+](=O)[O-])cc2[nH]c1=O | > 100 | > 100 | 66.5 | > 100 | > 100 | > 100 | > 100 | > 100 | > 100 | > 100 | > 100 | > 100 | – | – | > 100 | – | – | – | – | –
O=C(Nc1nc(C23CC4CC(CC(C4)C2)C3)cs1)c1cc2cc(Cl)ccc2oc1=O | > 100 | > 100 | > 100 | > 100 | > 100 | > 100 | > 100 | > 100 | > 100 | > 100 | > 100 | > 100 | > 100 | > 100 | – | > 100 | > 100 | > 100 | > 100 | –
CN(C)CCC(CCN(C)C)=NOC(=O)c1ccccc1 | > 100 | > 100 | > 100 | > 100 | – | > 100 | > 100 | > 100 | > 100 | > 100 | > 100 | – | > 100 | > 100 | > 100 | – | – | – | – | –
O=C(CC(C(=O)c1cccs1)c1cccs1)c1ccccc1Cl (configuration not stated) | > 100 | > 100 | > 100 | > 100 | > 100 | > 100 | > 100 | > 100 | > 100 | > 100 | > 100 | > 100 | > 100 | > 100 | > 100 | > 100 | > 100 | > 100 | > 100 | –
CC(=O)OC1CC2(C)OC(Cc3ccccc32)O1 (configuration not stated) | > 100 | – | > 100 | > 100 | > 100 | > 100 | > 100 | > 100 | > 100 | – | > 100 | > 100 | > 100 | – | > 100 | – | – | – | – | –
COc1cc(CNC2=NCCC2)cc(OC)c1OC | > 100 | > 100 | > 100 | > 100 | – | > 100 | > 100 | > 100 | > 100 | > 100 | > 100 | > 100 | > 100 | – | > 100 | > 100 | – | – | > 100 | > 100
Cc1cc2oc(-c3ccccc3)c(C)c(=O)c2c2c1OC(C)(C)S2 | > 100 | > 100 | > 100 | > 100 | > 100 | > 100 | > 100 | > 100 | > 100 | > 100 | > 100 | > 100 | > 100 | – | > 100 | – | – | – | – | –
